{"source": "paper PMC5642494", "about": "(Oncotarget, 2017)", "system": "EFM-19 cells", "test": "PI high content imaging of G1 arrest and cell proliferation, EFM-19", "type": "cell-based", "conditions": "Homo sapiens, at least 2 DT", "procedure": "Relative IC50/EC50 values were determined by curve fitting to a four parameter logistic equation: Y = bottom + ((top-bottom)/ (1+exp(HillSlope*(X – LnIC50)), where X is the natural log of dose/concentration, Y is response, decreasing as X increases, top and bottom are plateaus in the same units as Y, lnIC50 is the natural log of potency, in the same log units as X, and HillSlope measures the steepness of the curve. Data were plotted using GraphPad Prism. […]\nPreclinical characterization of abemaciclib in hormone receptor […]\nMETHODS High content imaging cell-based assays for monitoring phosphorylation of Rb (ser780), G1 arrest and […]\nATP at 20°C by a secondary goat anti-mouse IgG-Alexa Fluor 488 in a 96-well plate filtration assay format. […] Plates were read in an kinase buffer containing 68 mM Hepes at pH 7.5, 6.67 mM Acumen Explorer eX3 (TTP Labtech). […] 10µL of CDK6/cyclin corresponding to 500-530 nm and the percentage of D3 enzyme complex (Millipore 14-519, #D13BP009NA) cells with pRb signal relative to the total PI stained (1 nM final concentration in the assay) was added onto subpopulation was calculated by the instrument’s software a mix of substrate and test compound. […]\n(EDTA) was used to determine the level of background evaluated by measuring PI signal using high content 33P in the absence of enzyme activity. […]", "note": "Read-outs that look alike come from different tables or passages of the source.", "data": [{"smiles": "CCN1CCN(Cc2ccc(Nc3ncc(F)c(-c4cc(F)c5nc(C)n(C(C)C)c5c4)n3)nc2)CC1", "note": "[abemaciclib, Abemaciclib]", "values": [{"measurement": "IC50", "setting": "n = 2, read-out: IC50 2n (G1 arrest)", "value": "32 ± 21", "unit": "nM"}, {"measurement": "IC50", "setting": "n = 2, read-out: IC50 Cell number", "value": "19 ± 4", "unit": "nM"}]}]}
